# “And” between values parts separate entries of the source, which are not always exact repeats. Equal entries are not always repeated. Where two headings read alike, the source gives them in different places.
# Tests used:
# [1] = type: physicochemical
# [2] = physchem
smiles,measurement,setting,value
"O=[N+]([O-])c1ccccc1O [2NP, 2-nitrophenol]",effective mobility,[1]; pH 6.4,12.2(±0.3)·10^−9 m^2/Vs and 13.4(±0.3)·10^−9 m^2/Vs
same,effective mobility,[1]; pH 6.8,15.8(±0.2)·10^−9 m^2/Vs and 16.3(±0.2)·10^−9 m^2/Vs
same,pKa,[2],6.7

# Reference: patent US8562804B2 (priority 2006, dated 2013)
